Residues, ends and D or L forms follow the SMILES beside them.
How the values were obtained:
[1] = test system: antibody production against sheep erythrocyte; experiment: Effect on antibody production (Ceglowski's method), agglutination titer; assay type: in vivo, H. Wistar rats; conditions: for Antibody production, agglutination titer (X ± S.D.): single 25 μlit. dose of 4·10^-8 moles/liter to new-born rats
[2] = test system: lymphocytes of patients suffering from rheumatoid arthritis; experiment: Active E-rosette test, lymphocytes of rheumatoid arthritis patients; assay type: cell-based, human; conditions: for E-rosette forming activity, percentage amount of active lymphocytes: n = 4; for Effect on E-rosette forming activity (in words): 10^-9 moles/lit.
[3] = test system: plaque forming spleen cells (PFC); experiment: Effect on plaque forming spleen cells (PFC); assay type: in vivo, H. Wistar rats; conditions: for In vivo effect on plaque forming spleen cells (in words): in lower doses; for Ratio of the plaque formation produced by treated and untreated (control) animals: new-born animals
Description: (2) The number of the cells producing a specific antibody was determined by the method of Canningham Handbook of Experimental Immunology (editor: D. M. Weir), 2nd Volume, p. 285, Blackwell, Oxford-London (1978). According to this method from the spleen cells of immunized animals, sheep erythrocyte suspension and complement a homogenous suspension was prepared and it was placed into a chamber suitable for forming a single cell layer. Around the spleen cells lytic areolas are formed, the number of which is identical with the number of the cells producing a specific antibody (plaque forming cells, PFC).
The test animals, not later than 12 hour after birth, were given a single i.p. dose of the test material. According to the method (1) three different doses of each substance were tested. On the 7th day after immunization the plaque formation of the spleen cells isolated from the animals was examined.

[4] = test system: lymphocytes forming the E-rosette; experiment: E-rosette formation, summary statement; assay type: cell-based
Description: The active E-rosette test was carried out according to a modified method of Wybran et al [Wybran et al: New Engl. J. Med. 292, 475 (1975)] by the lymphocites of healthy and autoimmune patients (rheumatoid arthritis and systemic lupus erythematosus). To 50 μl of a lymphocyte cell suspension 10^-3 -10^-11 moles/lit. solutions of the test material were added and the mixture was incubated in an atmosphere containing 5.0% of carbon dioxide, at 37° C. for 60 minutes. Thereafter 50 μlit. of a 1% sheep erythrocite suspension were added and the mixture was centrifuged at 1000 r.p.m. for 10 minutes followed by shaking with a modified Gallenkampf-shaker (shaking time: 30 sec, stroke: 8 cm, shaking frequency: 65/min.). The rosettes were fixed with a 0.1% glutaric aldehyde (50 μlit. for each tube, 3 min.). Lymphocytes bonding more than three sheep erythrocite were counted under a microscope and 4×100 cells were evaluated. The separated lymphocytes contain macrophages and polymorphonuclear cells (up to 10%) as an impurity. The number of the cells forming the rosettes was corrected by this value each case.

[5] = test system: antibody production against sheep erythrocyte; experiment: Effect on antibody production (Ceglowski's method), agglutination titer; assay type: in vivo, H. Wistar rats
Description: (1) The effect on antibody production was tested according to Ceglowski's method [Ceglowski: Ann. N.Y. Acad. Sci. 249, 343 (1975)]. New-born H. Wistar rats were treated with single 25 μlit. doses of 4×10^-3 -4×10^-7 moles/lit. of the test material (9 animals for each dose) at the latest at the 12th hour after birth. The 14-day animals were then immunized with a sheep erythrocyte suspension administering 0.5 ml. of a 5% sheep erythrocyte suspension each animal intraperitoneally. On the 7th day after immunization the animals were decapitated. The blood of three animals was mixed and from the serum obtained (after centrifuging at 3000 r.p.m. for 10 minutes) the titers for antibodies were determined by the method of Takatsy [Takatsy: Acta Microbiol. Acad. Sci. Hung. 3, 191 (1955)]. The results are expressed in agglutination titers. The titer corresponds to the […] dilution of the serum in which agglutination can be observed.

[6] = test system: lymphocytes of healthy persons; experiment: Active E-rosette test, lymphocytes of healthy persons; assay type: cell-based, human; conditions: for E-rosette forming activity, percentage amount of active lymphocytes: n = 4
[7] = single i.p. dose 1.0·10^-4 mmoles
[8] = single i.p. dose 1.0·10^-6 mmoles
[9] = single i.p. dose 1.0·10^-8 mmoles
[10] = single 25 μlit. dose of 4·10^-4 moles/liter to new-born rats
[11] = single 25 μlit. dose of 4·10^-6 moles/liter to new-born rats

SMILES	Antibody production, agglutination titer (X ± S.D.) [1]	E-rosette forming activity, percentage amount of active lymphocytes ([2]; 10^-3 moles/liter) [%]	E-rosette forming activity, percentage amount of active lymphocytes ([2]; 10^-5 moles/liter) [%]	E-rosette forming activity, percentage amount of active lymphocytes ([2]; 10^-7 moles/liter) [%]	Effect on E-rosette forming activity (in words) [2]	E-rosette forming activity, percentage amount of active lymphocytes ([2]; 10^-9 moles/liter) [%]	E-rosette forming activity, percentage amount of active lymphocytes ([2]; 10^-11 moles/liter) [%]	In vivo effect on plaque forming spleen cells (in words) [3]	Ratio of the plaque formation produced by treated and untreated (control) animals [3, 7]	Ratio of the plaque formation produced by treated and untreated (control) animals [3, 8]	Ratio of the plaque formation produced by treated and untreated (control) animals [3, 9]	Activity: increases the number of the lymphocytes forming the E-rosette [4]	Antibody production, agglutination titer (X ± S.D.) [5, 10]	Antibody production, agglutination titer (X ± S.D.) [5, 11]	E-rosette forming activity, percentage amount of active lymphocytes ([6]; 10^-3 moles/liter) [%]	E-rosette forming activity, percentage amount of active lymphocytes ([6]; 10^-5 moles/liter) [%]	E-rosette forming activity, percentage amount of active lymphocytes ([6]; 10^-7 moles/liter) [%]	E-rosette forming activity, percentage amount of active lymphocytes ([6]; 10^-9 moles/liter) [%]	E-rosette forming activity, percentage amount of active lymphocytes ([6]; 10^-11 moles/liter) [%]	also measured
N=C(N)NCCC[C@H](N)C(=O)N[C@@H](CCCCN)C(=O)N[C@@H](CC(=O)O)C(=O)O [Arg--Lys--Asp, Arg-Lys-Asp] (H-Arg-Lys-Asp-OH)	6.0 ± 1.2	27.2	28.6	28.8	significantly stimulated	30.7	28.4	about two-times increase	0.7	2.1	1.8	active	6.0 ± 0	7.3 ± 0.6	29.9	34.1	41.7	39.3	35.9	In vivo effect on the antibody production (in words) ([5]; 4.10^-6 moles/lit.): significant stimulating activity; Effect on E-rosette forming activity (in words) ([6]; 10^-7 moles/lit.): significant stimulating effect
CC(C)[C@H](NC(=O)[C@H](CC(=O)O)NC(=O)[C@H](CCCCN)NC(=O)[C@@H](N)CCCNC(=N)N)C(=O)O [Arg--Lys--Asp--Val, Arg-Lys-Asp-Val] (H-RKDV-OH)		36.2	31.5	34.4	significantly stimulated	36.8	32.6					active			41.3	39.1	38.5	43.0	33.7	Ratio of the plaque formation produced by treated and untreated (control) animals ([3]; single i.p. dose 2.5·10^-3 mmoles): 0.34; Ratio of the plaque formation produced by treated and untreated (control) animals ([3]; single i.p. dose 2.5·10^-4 mmoles): 0.8; Effect on E-rosette forming activity (in words) ([6]; 10^-9 moles/lit.): significant stimulating effect
CC(C)[C@H](NC(=O)[C@H](CC(=O)O)NC(=O)[C@H](CCCCN)NC(=O)[C@@H](N)CCCNC(=N)N)C(N)=O [Arg--Lys--Asp--Val--NH2, Arg-Lys-Asp-Val-NH2] (H-RKDV-NH2)	6.8 ± 0.8	31.5	29.8	26.9	significantly stimulated	34.8	28.2	about two-times increase	0.3	0.52	2.7		5.2 ± 2.2	6.2 ± 2.0	29.0	33.8	35.1	26.6	38.1	In vivo effect on the antibody production (in words) ([1]; 4.10^-8 moles/lit.): significant stimulating activity; Effect on E-rosette forming activity (in words) ([6]; 10^-11 moles/lit.): stimulating effect
